Several values for one entry are separate records, joined by “and”; a condition that tells them apart may be missing. Equal entries are not always repeated.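 Values below derive from 48-hour exposures of cells grown in 96-well plates, with endpoints linearly interpolated between the two concentrations bracketing the appropriate inhibition level. GI50: concentration for 50% inhibition of growth. TGI: total growth inhibition.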

Some test systems named below: ACHN renal; MALME-3M melanoma; SNB-19 CNS; DU-145 prostate; SK-OV-3 ovarian; SF-539 CNS; HCT-15 colon; HCT-116 colon.
Holding throughout (assay): inhibition of tumour cell growth, NCI panel, 48 h

As for `Nc1n[nH]c2ccc([C@H]3[C@@H]4C5CCC(C5)[C@@H]4c4c(ccc5[nH]ncc45)N3S(=O)(=O)C3CC3)cc12` (some centres not stated), the GI50 with ACHN renal was 346 nM; in the assay on MALME-3M melanoma, 326 nM; with SNB-19 CNS it was 0.21 µM; with DU-145 prostate, 212 nM; in the assay with SK-OV-3 ovarian it was 5590 nM; in the assay with SF-539 CNS, 135 nM. The GI50 with HCT-15 colon was 198 nM; in the assay with HCT-116 colon it was 195 nM. Moreover, the TGI in the assay on ACHN renal was 22.5 µM; in the assay with MALME-3M melanoma it was 40.9 µM; with SNB-19 CNS, greater than 38.3 µM; in the assay on DU-145 prostate, 26.7 µM; with SK-OV-3 ovarian, 38.8 µM; in the assay on SF-539 CNS, 0.484 µM. Besides, the results for the TGI with HCT-15 colon and with HCT-116 colon were greater than 28.8 µM and greater than 9.99 µM, respectively.

Regarding `CC(=O)N[C@@H](Cc1ccc(OP(=O)(O)O)cc1)C(=O)N[C@H]1CCC(=O)N2CCC[C@@H](C(=O)NCc3cccc4ccccc34)N2C1=O`, the GI50 with ACHN renal was greater than 25000 nM; with MALME-3M melanoma, greater than 25000 nM; in the assay with SNB-19 CNS, greater than 25 µM; in the assay with DU-145 prostate, greater than 25000 nM; with SK-OV-3 ovarian, greater than 25000 nM; with SF-539 CNS, greater than 25000 nM. Also, the GI50 in the assay on HCT-15 colon and in the assay with HCT-116 colon was greater than 25000 nM throughout. For the same compound, the TGI with ACHN renal, in the assay with MALME-3M melanoma, in the assay on SNB-19 CNS, in the assay on DU-145 prostate, in the assay on SK-OV-3 ovarian and in the assay on SF-539 CNS was greater than 25 µM each time. The TGI with HCT-15 colon and with HCT-116 colon was greater than 25 µM in each case.

In the case of `COc1ncnn2ccc(-c3cnc4nc(C)n(Cc5nnc(C(C)F)o5)c4c3)c12` (configuration not stated), the GI50 in the assay with ACHN renal is 240 nM; with MALME-3M melanoma, 264 nM; in the assay with SNB-19 CNS, 0.198 µM; in the assay with DU-145 prostate, 288 nM; in the assay with SK-OV-3 ovarian, 71.6 nM; in the assay with SF-539 CNS, 218 nM. The GI50 in the assay on HCT-15 colon was 199 nM; with HCT-116 colon, 41 nM. The TGI is greater than 100 µM with ACHN renal; 0.75 µM in the assay with MALME-3M melanoma; greater than 100 µM in the assay with SNB-19 CNS; greater than 100 µM with DU-145 prostate; greater than 100 µM in the assay on SK-OV-3 ovarian; 0.674 µM with SF-539 CNS. In the assay on HCT-116 colon, this compound had a TGI greater than 100 µM.

In the case of `COc1cccc(Nc2ncnn3ccc(CN4CC[C@@H](N)[C@H](O)C4)c23)c1`, the GI50 was 30.5 nM and 37.3 nM in the assay with ACHN renal; 17600 nM and > 4830 nM in the assay on MALME-3M melanoma; 14.4 µM and 8.98 µM with SNB-19 CNS; 1590 nM and 927 nM in the assay on DU-145 prostate; 38.6 nM and 32.2 nM in the assay with SK-OV-3 ovarian; 1720 nM and 1080 nM in the assay on SF-539 CNS. Also, the GI50 was 3240 nM and 2150 nM in the assay on HCT-15 colon; 6690 nM and 2550 nM with HCT-116 colon. Besides, the TGI in the assay with ACHN renal was 6.96 µM and 7.74 µM; in the assay on MALME-3M melanoma it was 35.2 µM and > 10 µM; with SNB-19 CNS, 97.7 µM and > 10 µM; in the assay on DU-145 prostate, greater than 100 µM; with SK-OV-3 ovarian it was 0.772 µM and 0.129 µM; in the assay on SF-539 CNS it was 13.5 µM and > 7.44 µM. Further, the TGI with HCT-15 colon is 97.9 µM and > 10 µM; with HCT-116 colon, 26.4 µM and > 6.8 µM.

On to `COC(=O)Nc1nc2ccc(C(=O)C3CC3)cc2[nH]1`, for which the GI50 with ACHN renal was 790 nM; in the assay with MALME-3M melanoma, 392 nM; with SNB-19 CNS, 0.88 µM; with DU-145 prostate, 256 nM; in the assay with SK-OV-3 ovarian, 412 nM; in the assay with SF-539 CNS, 311 nM. Besides, the GI50 with HCT-15 colon is 385 nM; in the assay on HCT-116 colon it was 438 nM. The TGI is greater than 100 µM with ACHN renal; greater than 100 µM with MALME-3M melanoma; greater than 56.5 µM with SNB-19 CNS; 1.11 µM in the assay with DU-145 prostate; greater than 62 µM with SK-OV-3 ovarian; 3.06 µM with SF-539 CNS. In the assay on HCT-15 colon, this compound yielded a TGI greater than 100 µM.

In the case of `COc1ccc2c(c1)OC(N)=C(C#N)C2c1ccc(F)c(F)c1` (configuration not stated), the GI50 with ACHN renal is 564 nM; with MALME-3M melanoma, 619 nM; in the assay with SNB-19 CNS, 0.58 µM; with DU-145 prostate, 522 nM; in the assay on SK-OV-3 ovarian it was 495 nM; in the assay with SF-539 CNS it was 271 nM. Also, the GI50 in the assay on HCT-15 colon is 348 nM; in the assay on HCT-116 colon, 410 nM. The TGI in the assay on ACHN renal was greater than 72.8 µM; with MALME-3M melanoma, 77.4 µM; in the assay with SNB-19 CNS it was greater than 100 µM; in the assay on DU-145 prostate, greater than 46.5 µM; in the assay on SK-OV-3 ovarian it was greater than 64.1 µM; with SF-539 CNS it was 1.05 µM. For the same compound, the TGI was greater than 59 µM in the assay with HCT-15 colon and 25.5 µM in the assay on HCT-116 colon.

`COc1ccc(C(=O)O[C@@H]2CCN3CC[C@H](C)[C@H]23)cc1`: the TGI in the assay on ACHN renal, in the assay with SNB-19 CNS, in the assay on DU-145 prostate, in the assay with SK-OV-3 ovarian, with SF-539 CNS and in the assay on HCT-15 colon was greater than 100 µM throughout. Besides, the TGI in the assay on HCT-116 colon was greater than 100 µM.

As for `Nc1cc2c(c3ccccc13)C(CCl)CN2C(=O)c1cc2cc(NC(=O)c3cc4ccccc4o3)ccc2[nH]1` (configuration not stated), the GI50 is 0.208 nM in the assay with ACHN renal, greater than 110 nM with MALME-3M melanoma, greater than 110 nM in the assay on HCT-15 colon and greater than 110 nM in the assay on HCT-116 colon. Also, the TGI in the assay with MALME-3M melanoma is 0.00771 µM and < 0.11 µM; in the assay with SNB-19 CNS, 0.408 µM; in the assay on DU-145 prostate, 142 µM; with SK-OV-3 ovarian, 5.5 µM; with HCT-15 colon, 1.15 µM; with HCT-116 colon, greater than 1100 µM.

Turning to `O=P1(O)c2ccccc2CSCc2ccccc21`, the TGI in the assay on ACHN renal, in the assay with SNB-19 CNS, with DU-145 prostate, in the assay on SK-OV-3 ovarian, in the assay on SF-539 CNS and with HCT-15 colon was greater than 100 µM in each case. Also, the TGI in the assay with HCT-116 colon was greater than 100 µM.

Turning to `O=C(NCCNc1nccc(-c2c(-c3ccc(F)cc3)nc3sccn23)n1)Nc1cccc(C(F)(F)F)c1`, the GI50 with ACHN renal was 4140 nM; in the assay with SNB-19 CNS it was 7.93 µM; in the assay with DU-145 prostate it was 11600 nM; in the assay with SK-OV-3 ovarian, 2670 nM; in the assay on SF-539 CNS it was 11500 nM; in the assay on HCT-15 colon it was 4220 nM. Moreover, the GI50 in the assay with HCT-116 colon was 5470 nM. Further, the TGI with ACHN renal amounted to 36.7 µM; in the assay with SNB-19 CNS it was 36.8 µM; with DU-145 prostate, 30.9 µM; in the assay with SK-OV-3 ovarian, 11.9 µM; with SF-539 CNS, 26.7 µM; in the assay with HCT-15 colon, 47.9 µM. This compound also yielded a TGI with HCT-116 colon of 18.9 µM.

`Nc1nc(N)c2cc(Sc3ccc(Cl)cc3)ccc2n1`: the GI50 in the assay with ACHN renal is 666 nM; in the assay with MALME-3M melanoma, 1250 nM; in the assay on SNB-19 CNS, 3.71 µM; in the assay with DU-145 prostate, 1900 nM; with SF-539 CNS it was 3100 nM; in the assay on HCT-15 colon, 491 nM. The GI50 in the assay on HCT-116 colon was 327 nM. The TGI was 16.4 µM with ACHN renal; 3.27 µM in the assay with MALME-3M melanoma; 20.8 µM in the assay with SNB-19 CNS; 14.6 µM in the assay on DU-145 prostate; 22.3 µM in the assay on SF-539 CNS; 14.9 µM with HCT-15 colon. In the assay with HCT-116 colon, this compound gave a TGI of 1.39 µM.

For the compound `Cc1cn2c(/C=N/NC3=NCCN3)c(-c3ccc(Cl)c([N+](=O)[O-])c3)nc2s1`, the GI50 in the assay with SNB-19 CNS was 1.48 µM; in the assay on DU-145 prostate, 789 nM; with SK-OV-3 ovarian it was 1530 nM; in the assay with SF-539 CNS, 962 nM; in the assay on HCT-116 colon, 949 nM. The TGI in the assay with SNB-19 CNS is greater than 50 µM; in the assay with DU-145 prostate, 1.89 µM; with SK-OV-3 ovarian, 3.68 µM; in the assay with SF-539 CNS, 1.85 µM; in the assay with HCT-116 colon it was 1.72 µM.

Take `C#CCOCCCC(=O)O`: the TGI with ACHN renal, with SNB-19 CNS, in the assay with DU-145 prostate, with SK-OV-3 ovarian, in the assay on SF-539 CNS and in the assay with HCT-15 colon was greater than 100 µM throughout. The compound further gave a TGI in the assay with HCT-116 colon greater than 100 µM.

On to `O=C(O)c1ccc(NCn2nc(-c3ccccc3O)oc2=S)cc1O`, for which the GI50 was 31600 nM with ACHN renal, greater than 100 µM with SNB-19 CNS, 32000 nM with HCT-15 colon and 44900 nM with HCT-116 colon. Besides, the TGI was 99.1 µM in the assay with ACHN renal, greater than 100 µM with SNB-19 CNS, 92.6 µM in the assay on HCT-15 colon and greater than 100 µM in the assay on HCT-116 colon.

Consider `Fc1ccc(-c2nn3c(COc4ccccc4Cl)nnc3s2)cc1Oc1ccccc1`, for which the GI50 with ACHN renal is 25000 nM; with MALME-3M melanoma it was 26200 nM; in the assay with SNB-19 CNS, 23.4 µM; with DU-145 prostate it was 39000 nM; in the assay on SF-539 CNS it was 32200 nM; with HCT-15 colon, 38700 nM. Moreover, the GI50 with HCT-116 colon was 23200 nM. Also, the TGI in the assay on ACHN renal was 65.3 µM; in the assay on MALME-3M melanoma, 68.9 µM; in the assay with SNB-19 CNS it was 57.6 µM; in the assay on DU-145 prostate, greater than 100 µM; in the assay on SF-539 CNS it was 92.1 µM; in the assay on HCT-15 colon, greater than 100 µM. This compound also registered a TGI in the assay with HCT-116 colon of 66.1 µM.

With `CC(=O)NS(=O)(=O)c1ccc(-n2nc(-c3ccccc3)cc2-c2cc(O)ccc2O)cc1`, the GI50 in the assay with ACHN renal is greater than 100000 nM; in the assay with SNB-19 CNS, greater than 100 µM; in the assay with HCT-15 colon, greater than 100000 nM; in the assay on HCT-116 colon it was 27200 nM. In addition, the TGI in the assay on ACHN renal, in the assay on SNB-19 CNS, in the assay on HCT-15 colon and with HCT-116 colon was greater than 100 µM each time.

Regarding `CCOC(=O)Nc1ccc2c3c(cccc13)-c1ccccc1-2`, the GI50 was 9730 nM in the assay on ACHN renal; 23.5 µM with SNB-19 CNS; 7560 nM with DU-145 prostate; 9180 nM with SK-OV-3 ovarian; 5650 nM with SF-539 CNS; 4320 nM in the assay with HCT-15 colon. For the same compound, in the assay on HCT-116 colon, the GI50 was 4220 nM. Further, the TGI with ACHN renal, in the assay on SNB-19 CNS, in the assay with DU-145 prostate, in the assay on SK-OV-3 ovarian, in the assay on SF-539 CNS and in the assay with HCT-15 colon was greater than 100 µM throughout. In the assay with HCT-116 colon, this compound gave a TGI greater than 100 µM.

The values above are taken from PubChem BioAssay (NCI).
